{"source": "patent US20190151312A1", "about": "“HEPARAN SULFATE BIOSYNTHESIS INHIBITORS FOR THE TREATMENT OF DISEASES” (BioMarin Pharmaceutical Inc., priority 2014, published 2019)", "data": [{"test_system": "GM01896 cells (MPS II dermal fibroblasts)", "assay": "Assay 1: MPS cellular assay, MPS II (heparan sulfate disaccharide biomarkers by LC-MS)", "type": "cell-based, human", "settings": "Homo sapiens, Fibroblast, Assay 1 for MPS II, heparan sulfate disaccharide biomarkers (I2a4, I2a6, I2S0 and/or I2S6), read-out: IC50 Range", "how_it_was_run": "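MPS II patient dermal fibroblasts (GM01896) treated with compound at ≤30 μM for 4 to 21 days. Heparan sulfate GAGs isolated by anion exchange, digested with heparinases I-III, aniline-tagged against [13C6]aniline standards and quantified by LC-MS; IC50 from curve fitting. Viability monitored by alamar blue or ATP.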", "units": {"IC50": "µM"}, "values": [{"smiles": "Cn1nc(CN2CCOCC2)c2ccc(-c3cc(Nc4ccc(Cl)cc4)nc(N4CCOCC4)n3)cc21", "note": "[(4-chlorophenyl){6-[1-methyl-3-(morpholin-4-ylmethyl)(1H-indazol-6-yl)]-2-morpholin-4-ylpyrimidin-4-yl}amine]", "IC50": "1 to 5"}, {"smiles": "Cn1nc(CN2CCCC2)c2ccc(-c3cc(Nc4ccc(Cl)cc4)nc(N4CCOCC4)n3)cc21", "note": "[(4-chlorophenyl){6-[1-methyl-3-(pyrrolidinylmethyl)(1H-indazol-6-yl)]-2-morpholin-4-ylpyrimidin-4-yl}amine]", "IC50": "0.5 to 1"}, {"smiles": "COCCc1nc2ccc(-c3cc(Nc4ccc(Cl)cc4)nc(N4CCOCC4)n3)cc2n1C", "note": "[(4-chlorophenyl){6-[2-(2-methoxyethyl)-1-methylbenzimidazol-6-yl]-2-morpholin-4-ylpyrimidin-4-yl}amine]", "IC50": "0.5 to 1"}, {"smiles": "Clc1ccc(Nc2cc(-c3ccc4nn(CC5CC5)cc4c3)nc(N3CCOCC3)n2)cc1", "note": "[(4-chlorophenyl){6-[2-(cyclopropylmethyl)(2H-indazol-5-yl)]-2-morpholin-4-ylpyrimidin-4-yl}amine]", "IC50": "1 to 5"}, {"smiles": "Clc1ccc(Nc2cc(-c3ccc4cn(CC5CC5)nc4c3)nc(N3CCOCC3)n2)cc1", "note": "[(4-chlorophenyl){6-[2-(cyclopropylmethyl)(2H-indazol-6-yl)]-2-morpholin-4-ylpyrimidin-4-yl}amine]", "IC50": "1 to 5"}, {"smiles": "Cc1nc2cc(-c3cc(Nc4ccc(Cl)cc4)nc(N4CCOCC4)n3)ccc2n1CCN1CCOCC1", "note": "[(4-chlorophenyl){6-[2-methyl-1-(2-morpholin-4-ylethyl)benzimidazol-5-yl]-2-morpholin-4-ylpyrimidin-4-yl}amine]", "IC50": "1 to 5"}, {"smiles": "Cc1nc2ccc(-c3cc(Nc4ccc(Cl)cc4)nc(N4CCOCC4)n3)cc2n1CCN1CCOCC1", "note": "[(4-chlorophenyl){6-[2-methyl-1-(2-morpholin-4-ylethyl)benzimidazol-6-yl]-2-morpholin-4-ylpyrimidin-4-yl}amine]", "IC50": "0.5 to 1"}, {"smiles": "Cc1nc2cc(-c3cc(Nc4ccc(Cl)cc4)nc(N4CCOCC4)n3)ccc2n1CCN1CCCC1", "note": "[(4-chlorophenyl){6-[2-methyl-1-(2-pyrrolidinylethyl)benzimidazol-5-yl]-2-morpholin-4-ylpyrimidin-4-yl}amine]", "IC50": "0.5 to 1"}, {"smiles": "Cc1nc2ccc(-c3cc(Nc4ccc(Cl)cc4)nc(N4CCOCC4)n3)cc2n1CCN1CCCC1", "note": "[(4-chlorophenyl){6-[2-methyl-1-(2-pyrrolidinylethyl)benzimidazol-6-yl]-2-morpholin-4-ylpyrimidin-4-yl}amine]", "IC50": "1 to 5"}, {"smiles": "Cc1nc2ccc(-c3cc(Nc4ccc(Cl)cc4)nc(N4CCOCC4)n3)cc2n1CCCN1CCOCC1", "note": "[(4-chlorophenyl){6-[2-methyl-1-(3-morpholin-4-ylpropyl)benzimidazol-6-yl]-2-morpholin-4-ylpyrimidin-4-yl}amine]", "IC50": "1 to 5"}, {"smiles": "Cc1nc2ccc(-c3cc(Nc4ccc(Cl)cc4)nc(N4CCOCC4)n3)cc2n1CCCN1CCCC1", "note": "[(4-chlorophenyl){6-[2-methyl-1-(3-pyrrolidinylpropyl)benzimidazol-6-yl]-2-morpholin-4-ylpyrimidin-4-yl}amine]", "IC50": "0.5 to 1"}, {"smiles": "Cc1nn(CCN2CCOCC2)c2cc(-c3cc(Nc4ccc(Cl)cc4)nc(N4CCOCC4)n3)ccc12", "note": "[(4-chlorophenyl){6-[3-methyl-1-(2-morpholin-4-ylethyl)(1H-indazol-6-yl)]-2-morpholin-4-ylpyrimidin-4-yl}amine]", "IC50": "0.5 to 1"}, {"smiles": "Cc1nn(CCN2CCCC2)c2cc(-c3cc(Nc4ccc(Cl)cc4)nc(N4CCOCC4)n3)ccc12", "note": "[(4-chlorophenyl){6-[3-methyl-1-(2-pyrrolidinylethyl)(1H-indazol-6-yl)]-2-morpholin-4-ylpyrimidin-4-yl}amine]", "IC50": "1 to 5"}, {"smiles": "Cc1nn(CCCN2CCOCC2)c2cc(-c3cc(Nc4ccc(Cl)cc4)nc(N4CCOCC4)n3)ccc12", "note": "[(4-chlorophenyl){6-[3-methyl-1-(3-morpholin-4-ylpropyl)(1H-indazol-6-yl)]-2-morpholin-4-ylpyrimidin-4-yl}amine]", "IC50": "1 to 5"}, {"smiles": "Cc1nn(CCCN2CCCC2)c2cc(-c3cc(Nc4ccc(Cl)cc4)nc(N4CCOCC4)n3)ccc12", "note": "[(4-chlorophenyl){6-[3-methyl-1-(3-pyrrolidinylpropyl)(1H-indazol-6-yl)]-2-morpholin-4-ylpyrimidin-4-yl}amine]", "IC50": "0.5 to 1"}, {"smiles": "Cn1nc(CCN2CCOCC2)c2cc(F)c(-c3cc(Nc4ccc(Cl)cc4)nc(N4CCOCC4)n3)cc21", "note": "[(4-chlorophenyl){6-[5-fluoro-1-methyl-3-(2-morpholin-4-ylethyl)(1H-indazol-6-yl)]-2-morpholin-4-ylpyrimidin-4-yl}amine]", "IC50": "0.5 to 1"}, {"smiles": "Cn1cnc2ccc(-c3cc(Nc4ccc(F)cc4)nc(N4CCOCC4)n3)cc21", "note": "[(4-fluorophenyl)[6-(1-methylbenzimidazol-6-yl)-2-morpholin-4-ylpyrimidin-4-yl]amine]", "IC50": "1 to 5"}, {"smiles": "Cn1nc(CCN2CCOCC2)c2ccc(-c3cc(Nc4ccc(F)cc4)nc(N4CCOCC4)n3)cc21", "note": "[(4-fluorophenyl){6-[1-methyl-3-(2-morpholin-4-ylethyl)(1H-indazol-6-yl)]-2-morpholin-4-ylpyrimidin-4-yl}amine]", "IC50": "1 to 5"}, {"smiles": "Cn1ncc2ccc(-c3cc(Nc4ccc(-c5ncc[nH]5)cc4)nc(N4CCOCC4)n3)cc21", "note": "[(4-imidazol-2-ylphenyl)[6-(1-methyl(1H-indazol-6-yl))-2-morpholin-4-ylpyrimidin-4-yl]amine]", "IC50": "< 0.5"}, {"smiles": "Cn1nc(CCN2CCOCC2)c2ccc(-c3cc(Nc4ccc(-c5ncc[nH]5)cc4)nc(N4CCOCC4)n3)cc21", "note": "[(4-imidazol-2-ylphenyl){6-[1-methyl-3-(2-morpholin-4-ylethyl)(1H-indazol-6-yl)]-2-morpholin-4-ylpyrimidin-4-yl}amine]", "IC50": "1 to 5"}, {"smiles": "Cn1ncc2ccc(-c3cc(Nc4ccc(-c5c[nH]cn5)cc4)nc(N4CCOCC4)n3)cc21", "note": "[(4-imidazol-4-ylphenyl)[6-(1-methyl(1H-indazol-6-yl))-2-morpholin-4-ylpyrimidin-4-yl]amine]", "IC50": "0.5 to 1"}, {"smiles": "Cn1nc(CCN2CCOCC2)c2ccc(-c3cc(Nc4ccc(-c5c[nH]cn5)cc4)nc(N4CCOCC4)n3)cc21", "note": "[(4-imidazol-4-ylphenyl){6-[1-methyl-3-(2-morpholin-4-ylethyl)(1H-indazol-6-yl)]-2-morpholin-4-ylpyrimidin-4-yl}amine]", "IC50": "1 to 5"}, {"smiles": "COc1ccc(Nc2cc(-c3ccc4cnn(C)c4c3)nc(N3CCOCC3)n2)cc1", "note": "[(4-methoxyphenyl)[6-(1-methyl(1H-indazol-6-yl))-2-morpholin-4-ylpyrimidin-4-yl]amine]", "IC50": "1 to 5"}, {"smiles": "COc1ccc(Nc2cc(-c3ccc4ncn(C)c4c3)nc(N3CCOCC3)n2)cc1", "note": "[(4-methoxyphenyl)[6-(1-methylbenzimidazol-6-yl)-2-morpholin-4-ylpyrimidin-4-yl]amine]", "IC50": "1 to 5"}, {"smiles": "CNC(=O)c1ccc(Nc2cc(-c3ccc4nc(C)n(C)c4c3)nc(N3CCOCC3)n2)cc1", "note": "[(4-{[6-(1,2-dimethylbenzimidazol-6-yl)-2-morpholin-4-ylpyrimidin-4-yl]amino}phenyl)-N-methylcarboxamide]", "IC50": "< 0.5"}, {"smiles": "CNC(=O)c1ccc(Nc2cc(-c3ccc4c(C)nn(C)c4c3)nc(N3CCOCC3)n2)cc1", "note": "[(4-{[6-(1,3-dimethyl(1H-indazol-6-yl))-2-morpholin-4-ylpyrimidin-4-yl]amino}phenyl)-N-methylcarboxamide]", "IC50": "< 0.5"}, {"smiles": "CNC(=O)c1ccc(Nc2cc(-c3ccc4cnn(C5CCC5)c4c3)nc(N3CCOCC3)n2)cc1", "note": "[(4-{[6-(1-cyclobutyl(1H-indazol-6-yl))-2-morpholin-4-ylpyrimidin-4-yl]amino}phenyl)-N-methylcarboxamide]", "IC50": "< 0.5"}]}]}
